Values of other authors in patent US6670356B2, “Analogs of galanthamine and lycoramine as modulators of nicotinic receptors” (priority 1999, dated 2003).

Experiments:
[1] = system: nicotinic receptors of PC12 cells
[2] = system: gastrocnemius
[3] = system: superior cervical ganglion; settings: cat
[4] = system: cholinesterase

| SMILES | Whole-cell currents evoked ([1]; PC12 cells) | Mode of action at nicotinic receptors ([1]; PC12 cells) | Single channel activity after incubation with FK1 (competitive monoclonal antibody to physostigmine) ([1]; PC12 cells) | Channel activation ([1]; inside-out patches from PC 12 cells) | Twitch potentiating effects relative to neostigmine or physostigmine ([2]; nerve muscle preparation, quoted from the cited authors' discussion) | Twitch potentiation relative to neostigmine or physostigmine ([2]; quoted from the cited authors) | Preservation of the ganglionic surface potential ([3]; direct recordings, treated ganglia) | Inhibition of hexamethonium (C6) induced ganglionic blockade ([3]; intra-arterially, 250 micrograms) | Anticholinesterase activity relative to neostigmine or physostigmine ([4]; quoted from the cited authors' discussion) | IC 50 for cholinesterase inhibition, times lower than for galanthamine ([4]; rat brain, erythrocytes, or gastrocnemius homogenate) [times lower] |
| --- | --- | --- | --- | --- | --- | --- | --- | --- | --- | --- |
| COc1ccc2c3c1O[C@H]1[C@@H](O)C=C[C@H]4[C@@H](C2)N(C)CC[C@@]341 [codeine] | do not evoke sizable whole-cell currents | – | – | – | – | – | – | – | – | – |
| COc1ccc2c3c1O[C@H]1C[C@@H](O)C=C[C@@]31CCN(C)C2 [galanthamine] | do not evoke sizable whole-cell currents | noncompetitive agonists | neither physostigmine nor galanthamine could induce | cause some channel activation | 1/10 | 1/10 | preservation of the surface potential is shown | substantially inhibited | 1/100 | – |
| CN(C)C(=O)Oc1cccc([N+](C)(C)C)c1 [neostigmine] | – | – | – | – | – | – | – | – | – | ~200 |
